{"source": "patent US6946480B2", "about": "“Glutaminyl based DPIV inhibitors” (priority 2002, dated 2005)", "key": {"[1]": {"target": "T1, Prolidase from porcine kidney (Sus scrofa, UniProt A0A5G2QQV1)", "T1 sequence (A0A5G2QQV1 1-463)": "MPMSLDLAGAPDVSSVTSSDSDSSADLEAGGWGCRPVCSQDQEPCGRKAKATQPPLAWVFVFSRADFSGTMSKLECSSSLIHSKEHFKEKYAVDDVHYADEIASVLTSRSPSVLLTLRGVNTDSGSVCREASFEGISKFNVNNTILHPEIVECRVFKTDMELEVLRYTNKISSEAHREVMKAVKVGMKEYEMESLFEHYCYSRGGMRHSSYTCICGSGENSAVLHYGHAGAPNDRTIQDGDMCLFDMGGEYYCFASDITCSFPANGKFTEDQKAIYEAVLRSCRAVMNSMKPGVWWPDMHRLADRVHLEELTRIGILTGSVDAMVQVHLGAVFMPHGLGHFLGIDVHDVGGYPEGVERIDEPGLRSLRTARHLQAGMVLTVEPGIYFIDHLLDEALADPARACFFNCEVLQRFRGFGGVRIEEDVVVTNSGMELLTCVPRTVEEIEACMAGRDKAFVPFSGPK", "assay": "Cross reacting enzymes - prolidase", "assay_type": "biochemical", "experimental": "Glutaminyl pyrrolidine or glutaminyl thiazolidine were tested for their cross reacting potency against dipeptidyl peptidase I, prolyl oligopeptidase and prolidase.\nProlidase (EC 3.4.13.9) was first described by Bergmann & Fruton (Bergmann, M. & Fruton, J S, 1937, J. Biol. Chem. 189-202). Prolidase releases the N-terminal amino acid from Xaa-Pro dipeptides and has a pH optimum between 6 and 9.\nProlidase from porcine kidney (ICN Biomedicals, Eschwege, Germany). was solved (1 mg/ml) in assay buffer (20 mM NH4(CH3COO)2, 3 mM MnCl2, pH 7.6). In order to get a fully active enzyme the solution was incubated for 60 min at room temperature.\n450 μl glutaminyl pyrrolidine or glutaminyl thiazolidine in an concentration range of 5*10^−3 M-5*10^−7 M were admixed with 500 μl buffer solution (20 mM NH4(CH3COO)2, pH 7.6) and 250 μl lle-Pro-OH (0.5 mM in the assay mixture). The assay mixture was pre-incubated at 30° C. for 5 min After pre-incubation, 75 μl Prolidase (1:10 diluted in assay buffer) were added and measurement was performed at 30° C. and λ=220 nm for 20 min using a UV/Vis photometer, UV1 (Thermo Spectronic, Cambridge, UK).\nThe IC50-values were calculated using Graphit 4.0.15 (Erithacus Software, Ltd., UK)."}, "[2]": {"tested_on": "diabetic Zucker rats", "assay": "Dose escalation study with oral glucose tolerance test in fatty Zucker rats", "assay_type": "in vivo, Zucker rats (fa/fa)", "conditions": "for effect on glucose tolerance (OGTT): 2 g/kg glucose", "experimental": "N=30 male Zucker rats (fa/fa), mean age 11 weeks (5-12 weeks), mean body weight 350 g (150-400 g), were purchased from Charles River (Sulzfeld, Germany). After delivery they were kept for >12 weeks until nearly all fatty Zucker rats had the characteristics of manifest diabetes mellitus. A group of N=8 animals were recruited for testing three escalating doses of glutaminyl pyrrolidine vs. placebo (saline).\nAnimals were single-caged under standardized conditions with controlled temperature (22±2° C.) on a 12/12 hours light/dark cycle (light on at 06:00 AM). Sterile standard pelleted chow (ssniff® Soest, Germany) and tap water acidified with HCl were allowed ad libitum.\nFatty Zucker rats of 24-31 weeks (mean: 25 weeks) age, adapted to the housing conditions, were well prepared for the study.\nCatheters were implanted into the carotid artery of fatty Zucker rats under general anaesthesia (i.p. injection of 0.25 ml/kg b.w. Rompune® [2%], BayerVital, Germany and 0.5 ml/kg b.w. Ketamin 10, Atarost GmbH & Co., Twistringen, Germany). The animals were allowed to recover for one week. The catheters were flushed with heparin-saline (100 IU/ml) three times per week.\nPlacebo (1 ml saline, 0.154 mol/l) or escalating doses of glutaminyl pyrrolidine (5, 15 and 50 mg/kg b.w.) were administered to groups of N=8 fatty Zucker rats. 375 mg of glutaminyl pyrrolidine were dissolved in 1000 μl DMSO (E. Merck, Darmstadt; Germany [Dimethyl sulfoxide p.a.]). 10 ml saline were added and 1 ml aliquots, each containing 34.09 mg of glutaminyl pyrrolidine, were stored at −20° C. For preparation of the test substance, dose dependent aliquots were diluted in saline.\nAfter overnight fasting, placebo or test substance were administered to the fatty Zucker rats via feeding tube orally (15 G, 75 mm; Fine Science Tools, Heidelberg, Germany) at −10 min An oral glucose tolerance test (OGTT) with 2 g/kg b.w. glucose (40% solution, B. Braun Melsungen, Melsungen, Germany) was administered at ±0 min via a second feeding tube. Venous blood samples from the tail veins were collected at −30 min, −15 min, ±0 min and at 5, 10, 15, 20, 30, 40, 60, 90 and 120 min into 20 μl glass capillaries, which were placed in standard tubes filled with 1 ml solution for blood glucose measurement.\nGlucose levels were measured using the glucose oxidase procedure (Super G Glucose analyzer; Dr. Müller Gerätebau, Freital, Germany).\nStatistical evaluations and graphics were performed with PRISM® 3.02 (GraphPad Software, Inc.). All parameters were analysed in a descriptive manner including mean and SD.\nN=30 male Zucker rats (fa/fa), mean age 11 weeks (5-12 weeks), mean body weight 350 g (150-400 g), were purchased from Charles River (Sulzfeld, Germany). […]"}}, "data": [{"molecule": "NC(=O)CC[C@H](N)C(=O)N1CCCC1", "note": "[glutaminyl pyrrolidine]", "values": [{"measurement": "efficacy against prolidase compared to DPIV", "setting": "[1]", "result": "marked lower efficacy"}, {"measurement": "effect on glucose tolerance (OGTT)", "setting": "[2]; 5 mg/kg b.w. oral", "result": "limited improvement of glucose tolerance"}, {"measurement": "effect on blood glucose levels over escalating doses (OGTT)", "setting": "[2]; 5 mg/kg, 15 mg/kg and 50 mg/kg b.w. oral", "result": "dose dependent lowering of elevated blood glucose levels"}, {"measurement": "effect on glucose tolerance (OGTT)", "setting": "[2]; 15 mg/kg b.w. oral", "result": "Significant lowering of elevated blood glucose levels"}, {"measurement": "effect on glucose tolerance (OGTT)", "setting": "[2]; 50 mg/kg b.w. oral", "result": "Significant lowering of elevated blood glucose levels"}]}]}
